Experimental data published in patent US20080051413A1, “Nitrophenylpiperazine derivative of xanthine which relaxes tracheal airway and increases respiratory performance” (KAOHSIUNG MEDICAL UNIVERSITY, priority 2006, published 2008).

Columns and labels:
[1] = system: respiratory performance; assay: Pulmonary function after i.v. injection (RL, Cdyn, tidal volume); assay type: in vivo; details: 1 mg/kg i.v., guinea pig, n = 3
Protocol: Animals: Male Dunkin Harley guinea pigs (350-450 g) were provide by the National Laboratory Animal Breeding and Research Center (Taipei, Taiwan) and housed under conditions of constant temperature and controlled illumination. Food and water were available and libitum. The study was approved by the Animal Care and Use Committee of the Kaohsiung Medical University.
Pulmonary Function: Guinea pegs (350-450 g) were anesthetized with pentobarbital (40 mg/kg i.p.) and maintained with further i.v. doses of 2 to 5 mg/kg when required according to methods previously described (Wu B N, Lin R J, Lo Y C, Shen K P, Wang C C, Lin Y T, and Chen I J (2004) KMUP-1, a xanthine derivative, induces relaxation of guinea-pig isolated trachea: the role of the epithelium, cyclic nucleotides and K^+ channels, Br J Pharmacol 142:1105-1114). The animal was tethered in a supine position, and the trachea was cannulated below the larynx with a short tracheal cannula via a tracheotomy. Tracheal pressure was measured by a catheter connected to the side arm of the tracheal cannula. The carotid artery and jugular vein were cannulated to monitor blood pressure and heart rate and for drug administration, respectively. Throughout the experiment, the body temperature of the guinea pig was maintained at 37_. Measurements of pulmonary cardiac function were carried out as previously described (Hsu T H, Lai Y L, and Kou Y R (1998) Acetylcholine and tachykinin receptor antagonists attenuate wood smoke-induced bronchoconstriction in Guinea pigs. Eur J Pharmacol 360:175-183). Total lung resistance (RL) and dynamic lung compliance (Cdyn) were measured on a breath-by-breath basis using a computer equipped with an A/D interface (DAS 1600; Buxco Electronics, Inc., Wilmington, N.C.) and software (version 1.5.7; Buxco Electronics, Inc.). Results obtained from the computer analysis were checked for accuracy by comparison with those calculated manually.
Animals were allowed to stabilize for 10 min following surgical manipulations before the test agent was administered. Intratracheal instillation was performed using a catheter placed through the tracheal tube into the bronchial system. The catheter connected to a 1-ml syringe was inserted into the trachea cannula extending 1 cm beyond the tip of the cannula for instillation of drug or vehicle. The instillation was followed by rapid intratracheal injection of 0.5 ml of air to facilitate deposition of drug or vehicle into the lungs as in the modified methods of Chung et al. (2001)(Chung W H, Bennett B M, Racz W J, Brien J F, and […] Fischer 344 rats during aminodarone-induced pulmonary fibrosis. Am J Physiol 281:L1180-L1188). The animals were pretreated intratracheally with KMUP-3 (0.5, 1.0, and 2.0 mg/kg/150 _l of saline) or an equivalent volume (150 _l) of vehicle 15 min before TNF-_(0.01 mg/kg/300 _l saline) was instilled to induce acute bronchoconstriction. In another experiments, KMUP-3 or KMUP-1 (1.0 mg/kg i.v.) were used to compare the effects on respiratory performance, indicated by changes of tidal volume, total RL, and Cdyn.

[2] = system: guinea pig TSM strips; assay: Determination of nitrite in TSM strips; details: 100 _M, 30 min, EP+ TSM, basal 0.8±0.1 _M/mg, n=3
Protocol: Determination of Nitrite: To measure concentrations of nitrite (NO2^−) in guinea pig TSM strips, TSM strips were pretreated with KMUP-3 (100 _M) in Krebs' solution for 30 min. Then guinea pig TSM strips (2 ml/g tissue of methanol) were ultrasonically homogenized in an ice bath and then centrifuged at 10,000 g for 10 min at 4_. Briefly, harvestable supernatants were reacted with an equal volume of Griess reagents (1% […]/0.1% N-L-naphthylethylenediamine dihydrochloride/5% H3PO4) for 10 min to form a colored azo dye. The absorbance at 540 nm was detected by a flow-through visible spectrophotometer, and an equal volume of methanol was used for blank control.

## Cn1c(=O)c2c(ncn2CCN2CCN(c3ccc([N+](=O)[O-])cc3)CC2)n(C)c1=O [KMUP-3]
[1]
  Cdyn, Maximum change of baseline (%): 50 ± 5.5 %
  RL, Maximum change of baseline (%): −55 ± 4.5 %
  Tidal Volume, Maximum change of baseline (%): 21.7 ± 0.5 %
[2]
  NO2— release in comparison with the basal level: 160±15%
